Test results from patent US20260055117A1, “SUBSTITUTED PYRIDONE GPR84 ANTAGONISTS AND USES THEREOF” (Liminal BioSciences Limited, priority 2022, published 2026).

Tests used:
human GPR84 receptor = target: T1, human GPR84 receptor (Homo sapiens, UniProt Q9NQS5); test: Gαi biosensor BRET assay (GPR84 antagonism vs agonist ZQ-16); assay type: cell-based; conditions: HEK293 cells, 200 nmol/L agonist ZQ-16; for inhibition at 10 µM: tested at 10 μM (concentration code D); for IC50: Gαi biosensor BRET assay; for inhibition at 2 µM: tested at 2 μM (concentration code A)
T1 construct: host or cells: HEK293, transiently transfected
T1 sequence (Q9NQS5 whole entry): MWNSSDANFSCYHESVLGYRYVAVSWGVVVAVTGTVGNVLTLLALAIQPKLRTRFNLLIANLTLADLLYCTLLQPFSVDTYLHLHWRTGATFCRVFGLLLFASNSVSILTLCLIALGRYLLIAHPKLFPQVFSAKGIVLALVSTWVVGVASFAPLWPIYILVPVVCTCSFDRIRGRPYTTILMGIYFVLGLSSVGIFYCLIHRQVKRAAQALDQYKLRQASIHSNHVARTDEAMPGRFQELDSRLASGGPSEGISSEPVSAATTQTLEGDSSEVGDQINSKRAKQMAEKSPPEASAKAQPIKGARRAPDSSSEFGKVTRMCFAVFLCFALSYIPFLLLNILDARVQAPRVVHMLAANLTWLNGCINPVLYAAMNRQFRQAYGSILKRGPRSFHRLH
Summary of the method: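 HEK293 cells transiently expressing GPR84, Gαi2-Rluc8, GFP10-Gγ2 and Gβ1 were pre-incubated with compounds 5 min at 37 °C in Tyrode's buffer pH 7.5, then stimulated with 200 nmol/L ZQ-16 for 5 min at room temperature. BRET2 (acceptor/donor ratio) read after 5 μmol/L coelenterazine 400A, background- and vehicle-corrected.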

[1] = tested on: dextran sodium sulfate-induced chronic inflammatory bowel disease; conditions: mouse; once-daily doses of 3 and 10 mg/kg; cited from earlier work

Structure (SMILES)	inhibition at 10 µM (human GPR84 receptor)	IC50 (human GPR84 receptor)	inhibition at 2 µM (human GPR84 receptor)	also measured
Cc1cc(OCc2ncn[nH]2)cc(=O)n1[C@H](C)c1ccc(C#CC2CC2)cc1 [Compound I-328]	> 75%			
Cc1cc(OCc2ncnn2C)cc(=O)n1[C@H](C)c1ccc(C#CC2CC2)cc1 [Compound I-329]		≤ 300 nM	> 75%	
Cc1cc(OCc2nncn2C)cc(=O)n1[C@H](C)c1ccc(C#CC2CC2)cc1 [Compound I-330]		≤ 300 nM	> 75%	
Cc1cc(OCc2nnnn2C2CC2)cc(=O)n1[C@H](C)c1ccc(C#CC2CC2)cc1 [Compound I-331]			> 75%	
Cc1cc(OCC(=O)N2CC[C@H](S(=O)(=O)N(C)C)C2)cc(=O)n1[C@H](C)c1ccc(C#CC2CC2)cc1 [Compound I-333]	> 75%	1000 to 3000 nM		
Cc1cc(OCC(=O)N2CC[C@@H](S(=O)(=O)N(C)C)C2)cc(=O)n1[C@H](C)c1ccc(C#CC2CC2)cc1 [Compound I-334]		300 to 1000 nM	> 75%	
Cc1cc(OCC(=O)N2CC[C@H](NS(C)(=O)=O)C2)cc(=O)n1[C@H](C)c1ccc(C#CC2CC2)cc1 [Compound I-335]			> 75%	
Cc1cc(OCC(=O)N2CC[C@@H](NS(C)(=O)=O)C2)cc(=O)n1[C@H](C)c1ccc(C#CC2CC2)cc1 [Compound I-336]			> 75%	
Cc1cc(OCC(=O)N2CC[C@H](N(C)S(C)(=O)=O)C2)cc(=O)n1[C@H](C)c1ccc(C#CC2CC2)cc1 [Compound I-337]	> 75%			
Cc1cc(OCC(=O)N2CC[C@@H](N(C)S(C)(=O)=O)C2)cc(=O)n1[C@H](C)c1ccc(C#CC2CC2)cc1 [Compound I-338]	> 75%			
Cc1cc(/C=C2\SC(=O)NC2=O)cc(=O)n1[C@H](C)c1ccc(C#CC2CC2)cc1 [Compound I-339]	> 75%			
Cc1cc(COCC(=O)N(C)C)cc(=O)n1[C@H](C)c1ccc(C#CC2CC2)cc1 [Compound I-340]	50 to 75%			
Cc1cc(OCC(=O)N2CCCCC2)cc(=O)n1[C@H](C)c1ccc(C#CC2CC2)cc1 [Compound I-341]		≤ 300 nM	> 75%	
Cc1cc(OCC(=O)N2CC(C)(C)C2)cc(=O)n1[C@H](C)c1ccc(C#CC2CC2)cc1 [Compound I-342]	> 75%	300 to 1000 nM		
Cc1cc(OCC(=O)N2CC(C)(C#N)C2)cc(=O)n1[C@H](C)c1ccc(C#CC2CC2)cc1 [Compound I-343]		1000 to 3000 nM	> 75%	
Cc1cc(OCC(=O)N2CC3(CC3)C2)cc(=O)n1[C@H](C)c1ccc(C#CC2CC2)cc1 [Compound I-344]		≤ 300 nM	> 75%	
Cc1cc(OCC(=O)N2CC(C)(O)C2)cc(=O)n1[C@H](C)c1ccc(C#CC2CC2)cc1 [Compound I-345]	> 75%	≤ 300 nM		
Cc1cc(OCC(=O)NCCN2CCCC2)cc(=O)n1[C@H](C)c1ccc(C#CC2CC2)cc1 [Compound I-346]	25 to 50%			
Cc1cc(OCC(=O)N(C(C)C)C(C)C)cc(=O)n1[C@H](C)c1ccc(C#CC2CC2)cc1 [Compound I-347]	> 75%	300 to 1000 nM		
Cc1cc(OCC(=O)N2CC(C)OC(C)C2)cc(=O)n1[C@H](C)c1ccc(C#CC2CC2)cc1 (stereo partly shown) [Compound I-348]	> 75%			
COCCNC(=O)COc1cc(C)n([C@H](C)c2ccc(C#CC3CC3)cc2)c(=O)c1 [Compound I-349]	> 75%			
Cc1cc(OCC(=O)N(C)CC(=O)O)cc(=O)n1[C@H](C)c1ccc(C#CC2CC2)cc1 [Compound I-350]			> 75%	
O=c1nc(OC[C@@H]2COCCO2)cc2n1CCc1cc(C#CC3CC3)ccc1-2 [GLPG1205]				disease activity index score [1]: reduced; neutrophil infiltration [1]: reduced
